# In US12139488B2, “Pyrido[3,2-d]pyrimidine compounds uses thereof for treating a proliferative disease” (Universite de Montreal, priority 2021, dated 2024):
# System: pERK in HCT-116 cells (KRAS G13D)
# Test: Phospho-ERK inhibition (AlphaLISA SureFire Ultra p-ERK 1/2), HCT116
# Type: cell-based, human
# Details: HCT116 cells; class symbol
# Description: All cancer cell lines (A375, A101D, A2058, RKO, HT29 SK-MEL 30, IPC298, HepG2, HCT-116, Lovo, SWV620, SW480, NCI-H358, NCI-H2122, Calu-6, NCIH2087, NCIH1755, NCIH1666 and Mewo) were obtained from ATCC and cultured in RPMI-1640 medium (Gibco) supplemented with 5% heat inactivated fetal bovine serum (FBS, Wisent) at 37° C. under 5% CO2. Cells were maintained in T175 flasks (Greiner). They were passaged by removing the culture medium, washing once in 10 mL of room temperature Phosphate Buffered Saline (PBS; Wisent) and incubating at 37° C. with 2 mL of 0.05% Trypsin (Thermo-Fisher). Trypsin was then inactivated by adding complete growth medium and the cells were then replated in a T175 culture dish at the appropriate dilution. All cell lines were routinely tested for mycoplasma contamination. Tissue type and mutational status of each cell line can be found in Table B.
# AlphaLISA® SureFire® Ultra™ p-ERK 1/2 (Thr202/Tyr204) analysis was conducted on cells plated in 100 μL of complete RPMI-1640 growth medium in 96-well flat-bottomed transparent dishes (Costar) at a density indicated in Table C. Cells were maintained overnight at 37° C. under 5% CO2 before treatment with compounds' dilution series for one hour. The cell density in cells/cm^2 corresponds to cell number divided by the area of one well of a 96-well plate ([…]).
# In a dilution series 100 μL/well of test substance dilution prepared in complete RPMI-1640 growth media was added to the cells. The dilution series is selected so that ten concentrations cover a range from 10 μM to 0.33 nM. If necessary the initial concentration of 10 μM is increased to 100 μM or lowered to 1 μM (as in the case of A375 and H1666 cells, which are generally more sensitive to the compounds) and further dilution is carried out accordingly. The final concentration of DMSO in the assay is set at 0.5%.
# After treatment, media was removed and cells were lysed in 50 μL of 1× AlphaScreen Ultra Lysis Buffer (Perkin Elmer). The AlphaLISA® SureFire® Ultra™ p-ERK 1/2 (Thr202/Tyr2O4) (PerkinElmer) reactions were performed with 5 μL of cell lysate according to the manufacturer's specifications in 384-well proxyplates (Perkin Elmer) followed by overnight incubation of the reactions at room temperature in a humidified chamber. After completion of the reactions, the signals were recorded on an EnVision plate reader (Perkin Elmer) using built in AlphaLISA® settings.
# The effect of each compound dilution on the pERK signal was expressed in % inhibition and calculated as follows. An internal 100% inhibition control ([…] trametinib, cat #HY-10999; MedChem Express; CAS #871700-17-3) was included in each plate and used as a measure of pERK background. First, the value obtained for trametinib was subtracted from each data point. The average of DMSO (vehicle) controls (set as 0% inhibition) was established and used to calculate % inhibition: % inhibition=100*(1-((pERK signalcompound)/(pERK signalDMSO)))
# The ability of each compound to inhibit pERK signal was expressed as an IC50 value obtained by plotting the inhibition values for each data point of a dilution series and fitting the obtained curves using a log(agonist) versus response-variable slope (four parameters) function using GraphPadPrism (V7.0) or Dotmatics Screening Ultra platform.
# When present, paradoxical pERK induction is inferred from the negative % inhibition values observed in the pERK IC50 curves of a compound.
row,IC50 [µM],Compound
1,0.5 to 1,CC(=O)N1CCCc2nn(-c3ccc4ncnc(Nc5c(F)ccc(NS(=O)(=O)c6cccc(F)c6C)c5F)c4n3)cc21 [Example 357]
2,< 0.5,Cc1c(F)cccc1S(=O)(=O)Nc1ccc(F)c(Nc2ncnc3ccc(-n4cnc5c(CC#N)cccc54)nc23)c1F [Example 361]
3,0.5 to 1,Cc1cc(N)ccc1S(=O)(=O)Nc1ccc(F)c(Nc2ncnc3ccc(-n4cnc5c(N)cccc54)nc23)c1F [Example 369]
4,< 0.5,Cc1c(F)cccc1S(=O)(=O)Nc1ccc(F)c(Nc2ncnc3ccc(-n4cnc5c(N(CCCO)CCCO)cccc54)nc23)c1F [Example 375]
5,0.5 to 1,COCCN(CCOC)c1cccc2c1ncn2-c1ccc2ncnc(Nc3c(F)ccc(NS(=O)(=O)c4cccc(F)c4C)c3F)c2n1 [Example 376]
6,1 to 10,CC(=O)NCCN1CCCc2nn(-c3ccc4ncnc(Nc5c(F)ccc(NS(=O)(=O)c6cccc(F)c6C)c5F)c4n3)cc21 [Example 383]
7,1 to 10,COCCCN(CCCOC)c1cccc2c1ncn2-c1ccc2ncnc(Nc3c(F)ccc(NS(=O)(=O)c4cccc(F)c4C)c3F)c2n1 [Example 384]
8,1 to 10,Cc1c(F)cccc1S(=O)(=O)Nc1ccc(F)c(Nc2ncnc3ccc(-n4cc5c(n4)CCCN5CCCO)nc23)c1F [Example 391]
9,1 to 10,Cc1c(F)cccc1S(=O)(=O)Nc1ccc(F)c(Nc2ncnc3ccc(-n4cc5c(n4)CCCN5C(=O)CN)nc23)c1F [Example 392]
10,0.5 to 1,CC(=O)N1CCc2cnn(-c3ccc4ncnc(Nc5c(F)ccc(NS(=O)(=O)c6cccc(F)c6C)c5F)c4n3)c2C1 [Example 393]
11,1 to 10,Cc1c(F)cccc1S(=O)(=O)Nc1ccc(F)c(Nc2ncnc3ccc(-n4cnc5c(-c6cnccc6N)cccc54)nc23)c1F [Example 420]
12,< 0.5,Cc1c(F)cccc1S(=O)(=O)Nc1ccc(F)c(Nc2ncnc3ccc(-n4cnc5c(-c6cccnc6N)cccc54)nc23)c1F [Example 424]
13,0.5 to 1,Cc1c(F)cccc1S(=O)(=O)Nc1ccc(F)c(Nc2ncnc3ccc(-n4ncc5c4CCCN5CCO)nc23)c1F [Example 425]
14,< 0.5,CN(C)CCNS(=O)(=O)c1cn(-c2ccc3ncnc(Nc4c(F)ccc(NS(=O)(=O)c5cccc(Cl)c5Cl)c4F)c3n2)c2ccc(F)cc12 [Example 443]
15,< 0.5,CN(C)CCN(C)S(=O)(=O)c1cn(-c2ccc3ncnc(Nc4c(F)ccc(NS(=O)(=O)c5cccc(Cl)c5Cl)c4F)c3n2)c2ccc(F)cc12 [Example 444]
16,< 0.5,CC(C)(CO)S(=O)(=O)c1cn(-c2ccc3ncnc(Nc4c(F)ccc(NS(=O)(=O)c5cccc(Cl)c5Cl)c4F)c3n2)c2ccccc12 [Example 447]
17,< 0.5,CN(C)CC(C)(C)S(=O)(=O)c1cn(-c2ccc3ncnc(Nc4c(F)ccc(NS(=O)(=O)c5cccc(Cl)c5Cl)c4F)c3n2)c2ccccc12 [Example 456]
18,< 0.5,CC(C)(CN1CCOCC1)S(=O)(=O)c1cn(-c2ccc3ncnc(Nc4c(F)ccc(NS(=O)(=O)c5cccc(Cl)c5Cl)c4F)c3n2)c2ccccc12 [Example 457]
19,< 0.5,CNCC(C)(C)S(=O)(=O)c1cn(-c2ccc3ncnc(Nc4c(F)ccc(NS(=O)(=O)c5cccc(Cl)c5Cl)c4F)c3n2)c2ccccc12 [Example 461]
20,0.5 to 1,O=S(=O)(Nc1ccc(F)c(Nc2ncnc3ccc(-n4cc(S(=O)(=O)C5CCNCC5)c5ccccc54)nc23)c1F)c1cccc(Cl)c1Cl [Example 465]
21,< 0.5,CN1CCC(S(=O)(=O)c2cn(-c3ccc4ncnc(Nc5c(F)ccc(NS(=O)(=O)c6cccc(Cl)c6Cl)c5F)c4n3)c3ccccc23)CC1 [Example 467]

row,Compound,IC50 [µM]
1,Cc1c(F)cccc1S(=O)(=O)Nc1ccc(F)c(Nc2ncnc3ccc(-n4cc5c(n4)CCCN5CCN)nc23)c1F [Example 362],1 to 10
2,Cc1c(F)cccc1S(=O)(=O)Nc1ccc(F)c(Nc2ncnc3ccc(-n4ncc5c4CN(CCN)CC5)nc23)c1F [Example 415],0.5 to 1
3,Cc1c(F)cccc1S(=O)(=O)Nc1ccc(F)c(Nc2ncnc3ccc(-n4ncc5c4CCCN5C)nc23)c1F [Example 460],1 to 10
